Reference: patent publication US9562035B2, “Benzamide derivative useful as FASN inhibitors for the treatment of cancer” (Janssen Pharmaceutica NV, priority 2013, dated 2017)

Experiments:
[1] = biological target: T1, FASN Keto-reductase Domain (Homo sapiens, UniProt P49327); test: Fatty Acid Synthase Keto-Reductase Domain (FASN KR) Inhibition; assay type: biochemical; conditions: mean where tested more than once; read-out: FASN K-R Domain pIC50 (converted)
T1 construct: 10 μL hFASN enzyme (full length, 300 ng, purified in house) and 360 μM NADPH; made in house
Procedure, shortened: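 Keto-reductase activity followed as NADPH consumption (A340 drop between 0 and 20 min, room temperature) using in-house full-length hFASN, 360 μM NADPH and ethyl acetoacetate substrate (180 mM stock), pH 7.5 phosphate buffer.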

[2] = system: A2780 ovarian cells; test: A2780 Ovarian Cell Proliferation Assay in Lipid Reduced Medium, without Palmitate; assay type: cell-based; conditions: Homo sapiens, A2780; lipid reduced medium, without palmitate, 96 h, MTT; read-out: Proliferation A2780 w/o Palmitate pIC50 (converted)
Procedure, shortened: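 A2780 cells were seeded in 10% FCS medium and switched next day to 10% lipid-reduced serum without palmitate. Compounds at 0.01–30 μM were added with 0.2% DMSO, 0.2% fatty-acid-free BSA and 0.25% ethanol final. After 96 h, MTT absorbance at 544 nm was normalized to plate controls, and IC50/pIC50 came from a 4-parameter logistic fit.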

[3] = system: A2780 ovarian cells; test: A2780 Ovarian Cell Proliferation Assay in Lipid Reduced Medium, with Palmitate (control); assay type: cell-based; conditions: Homo sapiens, A2780; lipid reduced medium, 25 μM palmitate, 96 h, MTT; read-out: Proliferation A2780 with Palmitate pIC50 (converted)
Procedure, shortened: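 Read-out was MTT absorbance at 544 nm after 96 h at 37 °C. Cells grown overnight in RPMI1640/10% FCS were moved to 10% lipid-reduced serum with compound plus palmitate (final 25 μM, 0.2% fatty-acid-free BSA, 0.2% DMSO). IC50 came from least-squares curve fitting, expressed as −log(IC50).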

[4] = biological target: T2, hFASN enzyme (full length) (Homo sapiens, UniProt P49327); test: Fatty Acid Synthase (FASN) Inhibition Scintillation Proximity Assay; assay type: biochemical; conditions: for IC50: mean where tested more than once, ~ = standard error of pIC50 larger than 0.5; for inhibition at 10 µM: read-out: FASN % Effect @1E−05M
T2 construct: 10 μL hFASN enzyme (full length, 300 ng, purified in house); made in house
Procedure, shortened: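 Eight compound concentrations (0.01–30 μM) tested in pH 7.5 phosphate buffer with DTT; human full-length enzyme converted [3H]-acetyl-CoA plus malonyl-CoA, with NADPH, over 60 min at room temperature. Hydrophobic [3H]-palmitate detected by bead proximity scintillation imaging; control-normalised data fitted for IC50/pIC50.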

T2 sequence (P49327 whole entry): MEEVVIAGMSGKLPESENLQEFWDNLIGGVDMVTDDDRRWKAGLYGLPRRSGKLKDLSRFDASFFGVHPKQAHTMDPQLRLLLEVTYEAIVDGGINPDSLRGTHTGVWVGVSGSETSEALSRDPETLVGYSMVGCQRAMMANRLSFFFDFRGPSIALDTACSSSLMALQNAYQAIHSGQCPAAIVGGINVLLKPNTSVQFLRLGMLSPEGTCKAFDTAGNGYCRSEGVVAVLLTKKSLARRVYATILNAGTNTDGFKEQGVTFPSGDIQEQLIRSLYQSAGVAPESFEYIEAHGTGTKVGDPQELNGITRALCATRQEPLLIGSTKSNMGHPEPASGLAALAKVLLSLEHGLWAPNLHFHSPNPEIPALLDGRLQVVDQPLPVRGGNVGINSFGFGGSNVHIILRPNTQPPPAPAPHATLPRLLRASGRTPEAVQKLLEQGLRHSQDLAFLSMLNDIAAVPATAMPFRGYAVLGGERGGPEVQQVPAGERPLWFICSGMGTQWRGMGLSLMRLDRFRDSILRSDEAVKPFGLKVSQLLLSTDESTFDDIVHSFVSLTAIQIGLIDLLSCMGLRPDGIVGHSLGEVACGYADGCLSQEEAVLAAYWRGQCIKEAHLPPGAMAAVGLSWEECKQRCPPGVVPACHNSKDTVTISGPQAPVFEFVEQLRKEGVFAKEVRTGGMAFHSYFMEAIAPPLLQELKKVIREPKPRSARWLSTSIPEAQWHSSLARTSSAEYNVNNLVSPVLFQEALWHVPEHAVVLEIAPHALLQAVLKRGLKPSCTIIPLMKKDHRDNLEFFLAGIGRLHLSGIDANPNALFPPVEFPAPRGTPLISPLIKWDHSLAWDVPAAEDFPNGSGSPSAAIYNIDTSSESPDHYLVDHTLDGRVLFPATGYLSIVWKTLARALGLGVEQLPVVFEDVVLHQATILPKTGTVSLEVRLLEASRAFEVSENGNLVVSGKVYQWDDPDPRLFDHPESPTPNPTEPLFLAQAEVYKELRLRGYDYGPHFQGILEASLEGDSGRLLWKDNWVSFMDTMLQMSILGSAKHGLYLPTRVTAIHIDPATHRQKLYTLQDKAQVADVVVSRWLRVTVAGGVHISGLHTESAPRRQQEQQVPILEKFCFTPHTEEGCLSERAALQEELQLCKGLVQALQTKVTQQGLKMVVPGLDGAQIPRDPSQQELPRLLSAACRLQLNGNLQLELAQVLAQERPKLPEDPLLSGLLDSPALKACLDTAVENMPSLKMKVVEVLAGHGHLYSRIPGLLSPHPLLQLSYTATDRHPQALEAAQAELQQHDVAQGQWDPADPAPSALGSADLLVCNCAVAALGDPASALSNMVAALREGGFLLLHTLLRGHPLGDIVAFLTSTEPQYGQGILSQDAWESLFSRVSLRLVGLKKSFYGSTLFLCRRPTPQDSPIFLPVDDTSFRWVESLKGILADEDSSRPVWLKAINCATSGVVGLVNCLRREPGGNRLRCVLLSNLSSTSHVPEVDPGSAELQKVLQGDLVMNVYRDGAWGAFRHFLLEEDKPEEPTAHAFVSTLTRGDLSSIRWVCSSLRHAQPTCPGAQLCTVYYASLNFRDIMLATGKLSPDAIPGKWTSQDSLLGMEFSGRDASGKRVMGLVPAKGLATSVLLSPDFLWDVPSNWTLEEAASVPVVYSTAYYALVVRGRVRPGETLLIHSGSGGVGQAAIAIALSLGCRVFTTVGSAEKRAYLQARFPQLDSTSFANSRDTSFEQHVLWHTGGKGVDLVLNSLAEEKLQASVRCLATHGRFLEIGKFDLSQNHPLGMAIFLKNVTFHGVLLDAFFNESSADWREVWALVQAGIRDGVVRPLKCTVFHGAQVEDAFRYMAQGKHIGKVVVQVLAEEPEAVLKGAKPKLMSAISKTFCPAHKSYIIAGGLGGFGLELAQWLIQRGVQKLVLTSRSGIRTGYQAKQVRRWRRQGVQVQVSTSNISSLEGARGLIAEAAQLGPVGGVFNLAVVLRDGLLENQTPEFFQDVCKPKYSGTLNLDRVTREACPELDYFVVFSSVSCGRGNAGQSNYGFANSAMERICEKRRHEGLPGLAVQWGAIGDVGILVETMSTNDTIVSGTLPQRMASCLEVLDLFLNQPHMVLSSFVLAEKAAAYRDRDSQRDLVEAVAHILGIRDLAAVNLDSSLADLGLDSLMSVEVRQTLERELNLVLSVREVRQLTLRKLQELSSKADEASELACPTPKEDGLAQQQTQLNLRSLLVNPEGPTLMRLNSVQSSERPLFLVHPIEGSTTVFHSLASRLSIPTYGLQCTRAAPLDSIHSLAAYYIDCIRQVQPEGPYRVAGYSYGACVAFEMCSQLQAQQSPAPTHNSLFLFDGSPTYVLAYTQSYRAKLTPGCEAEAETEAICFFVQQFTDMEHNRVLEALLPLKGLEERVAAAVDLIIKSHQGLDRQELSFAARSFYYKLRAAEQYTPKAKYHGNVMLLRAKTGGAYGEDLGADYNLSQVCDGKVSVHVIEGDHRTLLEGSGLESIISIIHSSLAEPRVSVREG
T1 sequence (P49327 whole entry, the tested form may be a part): as the sequence (P49327 whole entry) above

IC50 [1] | IC50 [2] | IC50 [3] | IC50 [4] | inhibition at 10 µM [4] | Structure (SMILES)
324 nM | 120 nM | > 10000 nM | 120 nM | 108% | CCCCN1CCC(C(=O)Nc2cc(C(=O)N3CCC(c4ccc(-c5cnn(C)c5)cc4)CC3)ccc2C)C1 (stereo not drawn) [Compound 212, 1-butyl-N-(2-methyl-5-(4-(4-(1-methyl-1H-pyrazol-4-yl)phenyl)piperidine-1-carbonyl)phenyl)pyrrolidine-3-carboxamide]
195 nM | 64.6 nM | > 10000 nM | 45.7 nM | 111% | Cc1ccc(C(=O)N2CCC(c3ccc(-c4cnn(C)c4)cc3)CC2)cc1NC(=O)C1CN(CCC(C)C)C1 [Compound 213, 1-isopentyl-N-(2-methyl-5-(4-(4-(1-methyl-1H-pyrazol-4-yl)phenyl)piperidine-1-carbonyl)phenyl)azetidine-3-carboxamide]
282 nM | 275 nM | 9550 nM | 166 nM | 107% | CCCCCN1CC(C(=O)Nc2cc(C(=O)N3CCC(c4ccc(-c5cnn(C)c5)cc4)CC3)ccc2C)C1 [Compound 214, N-(2-methyl-5-(4-(4-(1-methyl-1H-pyrazol-4-yl)phenyl)piperidine-1-carbonyl)phenyl)-1-pentylazetidine-3-carboxamide]
309 nM | 191 nM | 9330 nM | 105 nM | 107% | CCCCCN1CCC(C(=O)Nc2cc(C(=O)N3CCC(c4ccc(-c5cnn(C)c5)cc4)CC3)ccc2C)C1 (stereo not drawn) [Compound 215, N-(2-methyl-5-(4-(4-(1-methyl-1H-pyrazol-4-yl)phenyl)piperidine-1-carbonyl)phenyl)-1-pentylpyrrolidine-3-carboxamide]
91.2 nM | 43.7 nM | 5620 nM | 36.3 nM | 113% | CCCCCCN1CCC(C(=O)Nc2cc(C(=O)N3CCC(c4ccc(-c5cnn(C)c5)cc4)CC3)ccc2C)CC1 [Compound 216]
501 nM | 214 nM | > 10000 nM | 174 nM | 105% | Cc1ccc(C(=O)N2CCC(c3ccc(-c4cnn(C5CCOCC5)c4)cc3)CC2)cc1NC(=O)c1ccc(NC(C)C)nc1 [Compound 217]
389 nM | 407 nM | 8510 nM | 145 nM | 105% | CCCCCCN1CCC(C(=O)Nc2cc(C(=O)N3CCC(c4ccc(-c5cnn(C)c5)cc4)CC3)ccc2C)C1 (stereo not drawn) [Compound 218, 1-hexyl-N-(2-methyl-5-(4-(4-(1-methyl-1H-pyrazol-4-yl)phenyl)piperidine-1-carbonyl)phenyl)pyrrolidine-3-carboxamide]
200 nM | 234 nM | > 10000 nM | 64.6 nM | 116% | Cc1ccc(C(=O)N2CCC(c3ccc(-c4cnn(C)c4)cc3)CC2)cc1NC(=O)C1CN(C(=O)C2CC2)C1 [Compound 219, 1-(cyclopropanecarbonyl)-N-(2-methyl-5-(4-(4-(1-methyl-1H-pyrazol-4-yl)phenyl)piperidine-1-carbonyl)phenyl)azetidine-3-carboxamide]
174 nM | 95.5 nM | > 10000 nM | 67.6 nM | 110% | Cc1ccc(C(=O)N2CCC(c3ccc(-c4cnn(C)c4)cc3)CC2)cc1NC(=O)C1CCN(C(=O)C2CC2)C1 (stereo not drawn) [Compound 220, 1-(cyclopropanecarbonyl)-N-(2-methyl-5-(4-(4-(1-methyl-1H-pyrazol-4-yl)phenyl)piperidine-1-carbonyl)phenyl)pyrrolidine-3-carboxamide]
245 nM | 91.2 nM | 5010 nM | 75.9 nM | 109% | Cc1ccc(C(=O)N2CCC(c3ccc(-c4cnn(CC5CCC5)c4)cc3)CC2)cc1NC(=O)c1ccc(NC(C)C)nc1 [Compound 221, N-(5-(4-(4-(1-(cyclobutylmethyl)-1H-pyrazol-4-yl)phenyl)piperidine-1-carbonyl)-2-methylphenyl)-6-(isopropylamino)nicotinamide]
60.3 nM | 8.71 nM | > 10000 nM | 22.4 nM | 113% | Cc1ccc(C(=O)N2CCC(c3ccc(-c4cnn(C)c4)cc3)CC2)cc1NC(=O)C1CN(C)C1 [Compound 222, 1-methyl-N-(2-methyl-5-(4-(4-(1-methyl-1H-pyrazol-4-yl)phenyl)piperidine-1-carbonyl)phenyl)azetidine-3-carboxamide]
141 nM | 148 nM | 2040 nM | 69.2 nM | 102% | Cc1ccc(C(=O)N2CCC(c3ccc(-c4ccsc4)cc3)CC2)cc1NC(=O)c1ccc(NC(C)C)nc1 [Compound 223, 6-(isopropylamino)-N-(2-methyl-5-(4-(4-(thiophen-3-yl)phenyl)piperidine-1-carbonyl)phenyl)nicotinamide]
282 nM | 372 nM | 5750 nM | 170 nM | 92% | Cc1ccc(C(=O)N2CCC(c3ccc(-c4ccccc4F)cc3)CC2)cc1NC(=O)c1ccc(NC(C)C)nc1 [Compound 224, N-(5-(4-(2′-fluoro-[1,1′-biphenyl]-4-yl)piperidine-1-carbonyl)-2-methylphenyl)-6-(isopropylamino)nicotinamide]
457 nM | 589 nM | 1580 nM | 339 nM | 79% | Cc1ccc(C(=O)N2CCC(c3ccc(-c4ccccc4)cc3)CC2)cc1NC(=O)c1ccc(NC(C)C)nc1 [Compound 225, N-(5-(4-([1,1′-biphenyl]-4-yl)piperidine-1-carbonyl)-2-methylphenyl)-6-(isopropylamino)nicotinamide]
525 nM | 692 nM | 2510 nM | 363 nM | 79% | Cc1ccc(C(=O)N2CCC(c3ccc(-c4cccc(F)c4)cc3)CC2)cc1NC(=O)c1ccc(NC(C)C)nc1 [Compound 230, N-(5-(4-(3′-fluoro-[1,1′-biphenyl]-4-yl)piperidine-1-carbonyl)-2-methylphenyl)-6-(isopropylamino)nicotinamide]
107 nM | 115 nM | > 10000 nM | 33.9 nM | 114% | COc1ccc(C(=O)N2CCC(c3ccc(-c4cnn(C)c4)cc3)CC2)cc1NC(=O)c1ccc(Cl)nc1 [Compound 231, 6-chloro-N-(2-methoxy-5-(4-(4-(1-methyl-1H-pyrazol-4-yl)phenyl)piperidine-1-carbonyl)phenyl)nicotinamide]
490 nM | 389 nM | 6610 nM | 324 nM | 85% | Cc1ccc(C(=O)N2CCC(c3ccc(-c4ccccc4C)cc3)CC2)cc1NC(=O)c1ccc(NC(C)C)nc1 [Compound 232, 6-(isopropylamino)-N-(2-methyl-5-(4-(2′-methyl-[1,1′-biphenyl]-4-yl)piperidine-1-carbonyl)phenyl)nicotinamide]
776 nM | 759 nM | 955 nM | 575 nM | 72% | Cc1cccc(-c2ccc(C3CCN(C(=O)c4ccc(C)c(NC(=O)c5ccc(NC(C)C)nc5)c4)CC3)cc2)c1 [Compound 233, 6-(isopropylamino)-N-(2-methyl-5-(4-(3′-methyl-[1,1′-biphenyl]-4-yl)piperidine-1-carbonyl)phenyl)nicotinamide]
